Measurements published in patent publication US20250092065A1, “2-(INDAZOL-5-YL)-6-(PIPERIDIN-4-YL)-1,7-NAPHTHYRIDINE DERIVATIVES AND RELATED COMPOUNDS AS MODULATORS FOR SPLICING NUCLEIC ACIDS AND FOR THE TREATMENT OF PROLIFERATIVE DISEASES” (REMIX THERAPEUTICS INC., priority 2022, published 2025).
Read-outs that look alike come from different tables or passages of the source.

Columns and labels:
SMN2 mRNA = assay: RT-qPCR splicing assay, SMN2 mRNA; type: cell-based, human; details: Homo sapiens, canonical junction qPCR panel, Table 4; read-out: SMN2 IC50 (decrease in CJ mRNA levels)
Outline: (§1)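 Canonical and alternative-exon junction isoforms were quantified by RT-qPCR in cell lysates, with ΔCt against a housekeeper (GAPDH/GUSB/PPIA), then ΔΔCt vs DMSO, converted to 2^(−ΔΔCt) and percent response. K562 or A673 cells were exposed for 24 h to 11 concentrations (3-fold, top final 10 uM).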

HTT = assay: HiBiT protein abundance assay, HTT (K562 HiBiT knock-in); type: cell-based, human; details: HiBiT knock-in K562 cells, 24 hours, top dose 10 μM
Outline: (§2)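 Steps: seed HiBiT knock-in K562 cells; add compound in 10-point 3-fold series from 10 μM final; incubate 24 h, 37 °C; add lytic HiBiT reagent, shake 5 min, wait 10 min; read luminescence. Normalize to parental K562 and DMSO controls, fit 4PL, take IC50.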

HTT mRNA = assay: RT-qPCR splicing assay, HTT mRNA canonical (CJ) and alternative (AJ) junction; type: cell-based, human; details: Homo sapiens; for AC50: HTT alternative junction mRNA, read-out: HTT AJ (increase in AJ mRNA, AC50)
Outline: as §1

K562 cells = assay: Cell Titer Glo 2.0 cell viability (toxicity) assay, K562; details: 500 cells/well, 72 hours
MYB mRNA = assay: RT-qPCR splicing assay, MYB mRNA canonical (CJ) and alternative (AJ) junction; type: cell-based, human; details: Homo sapiens; for AC50: MYB alternative junction mRNA, read-out: MYB AJ (increase in AJ mRNA, AC50)
Outline: as §1

MYB = assay: HiBiT protein abundance assay, MYB (K562 HiBiT knock-in); type: cell-based, human; details: HiBiT knock-in K562 cells, 24 hours, top dose 10 μM
Outline: as §2

Target C = assay: HiBiT protein abundance assay, Target C (K562 HiBiT knock-in); type: cell-based, human; details: HiBiT knock-in K562 cells, 24 hours, top dose 10 μM
Outline: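 K562 HiBiT knock-in cells (10000/well) were treated 24 h at 37° C with a 10-point 3-fold dilution series (top 10 μM final, ≤0.25% DMSO). HiBiT luminescence was read after lytic LgBiT detection. Percent response used unmodified K562 and DMSO-treated knock-in controls, and IC50 came from a four-parameter fit at 50% of untreated.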

[1] = HTT canonical junction mRNA, RT-qPCR, read-out: HTT CJ (decrease in CJ mRNA levels, IC50)
[2] = canonical junction qPCR panel, Table 4, read-out: HTT IC50 (decrease in CJ mRNA levels)
[3] = MYB canonical junction mRNA, RT-qPCR, read-out: MYB CJ (decrease in CJ mRNA levels, IC50)
[4] = canonical junction qPCR panel, Table 4, read-out: MYB IC50 (decrease in CJ mRNA levels)

IC50 (SMN2 mRNA) [µM]	IC50 (HTT) [µM]	IC50 (HTT mRNA; [1]) [µM]	IC50 (HTT mRNA; [2]) [µM]	IC50 (MYB mRNA; [3]) [µM]	IC50 (MYB mRNA; [4]) [µM]	IC50 (MYB) [µM]	IC50 (Target C) [µM]	SMILES	AC50 (HTT mRNA; RT-qPCR) [µM]	Effect of Exemplary Compounds on Cell Viability, K562 (K562 cells)	AC50 (MYB mRNA; RT-qPCR) [µM]
0.1 to 1	0.1 to 1	0.1 to 1	0.1 to 1	0.1 to 1	0.1 to 1	0.1 to 1	0.1 to 1	Cn1cc2nc(-c3ccc4nc(C5CCNCC5)ccc4n3)ccc2n1 [Compound 199]	0.1 to 1	B (B represents 100-1000 nM)	0.1 to 1
1 to 10	1 to 10	1 to 10	1 to 10	1 to 10	1 to 10	1 to 10	1 to 10	Cn1cc2cc(-c3ccc4nc(C5CCNCC5)ccc4n3)ncc2n1 [Compound 200]	1 to 10	C (C represents 1000-9999 nM)	1 to 10
< 0.1	< 0.1	< 0.1	< 0.1	0.1 to 1	0.1 to 1	< 0.1	< 0.1	Cc1cn2nc(-c3ccc4nc(N5CCC(NC(C)(C)C)C5)ccc4n3)c(O)c2c(C)n1 (stereo not shown) [Compound 203]	< 0.1	B (B represents 100-1000 nM)	0.1 to 1
1 to 10	1 to 10	1 to 10	1 to 10	1 to 10	1 to 10	1 to 10	1 to 10	Cc1cn2cc(-c3ccc4nc(N5CCC(NC(C)(C)C)C5)ccc4n3)nc(C)c2n1 (stereo not shown) [Compound 206]	1 to 10	C (C represents 1000-9999 nM)	1 to 10
1 to 10	1 to 10	> 10	> 10	> 10	> 10	> 10	> 10	Cc1nc(-c2ccc3nc(N4CCC(NC(C)(C)C)C4)ccc3n2)cc2cn(C)nc12 (stereo not shown) [Compound 208]	> 10	D (D represents greater than 10 μM in K562 cells)	1 to 10
< 0.1	< 0.1	0.1 to 1	0.1 to 1	1 to 10	1 to 10	< 0.1	< 0.1	Cc1nc2cc(O)c(-c3ccc4nc(N5CC[C@@H](NC(C)(C)C)C5)ccc4n3)cc2o1 [Compound 210]	1 to 10	A (A represents <100 nM)	1 to 10
< 0.1	< 0.1	< 0.1	< 0.1	0.1 to 1	0.1 to 1	0.1 to 1	0.1 to 1	Cc1nc2cc(O)c(-c3ccc4nc(N5CC[C@@H](NC6CC6)C5)ccc4n3)cc2o1 [Compound 212]	< 0.1	B (B represents 100-1000 nM)	0.1 to 1
< 0.1	< 0.1	< 0.1	< 0.1	< 0.1	< 0.1	< 0.1	< 0.1	Cn1cc2cc(-c3ccc4nc(N5CC[C@H](NC6(C)CC6)C5)ccc4n3)c(O)c(F)c2n1 [Compound 222]	< 0.1	B (B represents 100-1000 nM)	< 0.1

Continued, molecule first:

SMILES	IC50 (SMN2 mRNA) [µM]	IC50 (HTT) [µM]	IC50 (HTT mRNA; [1]) [µM]	IC50 (HTT mRNA; [2]) [µM]	IC50 (MYB mRNA; [3]) [µM]	IC50 (MYB mRNA; [4]) [µM]	IC50 (MYB) [µM]	IC50 (Target C) [µM]	AC50 (HTT mRNA; RT-qPCR) [µM]	Effect of Exemplary Compounds on Cell Viability, K562 (K562 cells)	AC50 (MYB mRNA; RT-qPCR) [µM]
Cn1cc2cc(-c3ccc4nc(N5CC[C@@H](NC6CC6)C5)ccc4n3)c(O)cc2n1 [Compound 198]	< 0.1	< 0.1	< 0.1	< 0.1	< 0.1	< 0.1	< 0.1	< 0.1	< 0.1	B (B represents 100-1000 nM)	< 0.1
Cc1cn2cc(-c3ccc4nc(N5CCC(NC(C)(C)C)C5)ccc4n3)cc(C)c2n1 (stereo not shown) [Compound 201]	< 0.1	< 0.1	0.1 to 1	0.1 to 1	0.1 to 1	0.1 to 1	0.1 to 1	0.1 to 1	0.1 to 1	B (B represents 100-1000 nM)	0.1 to 1
Cn1cc2cc(-c3ccc4nc(N5CCC(NC(C)(C)C)C5)ccc4n3)c(O)c(F)c2n1 (stereo not shown) [Compound 202]	< 0.1	< 0.1	< 0.1	< 0.1	< 0.1	< 0.1	< 0.1	< 0.1	< 0.1	A (A represents <100 nM)	< 0.1
Cn1cc2cc(-c3ccc4nc(C5CCNCC5)ccc4n3)c(C#N)cc2n1 [Compound 204]	0.1 to 1	1 to 10	1 to 10	1 to 10	1 to 10	1 to 10	1 to 10	1 to 10	1 to 10	D (D represents greater than 10 μM in K562 cells)	1 to 10
Cn1cc2nc(-c3ccc4nc(C5CCNCC5)ccc4n3)c(F)cc2n1 [Compound 205]	1 to 10	1 to 10	1 to 10	1 to 10	1 to 10	1 to 10	1 to 10	1 to 10	1 to 10	C (C represents 1000-9999 nM)	1 to 10
Cn1cc2nc(-c3ccc4nc(N5CCC(NC(C)(C)C)C5)ccc4n3)c(F)cc2n1 (stereo not shown) [Compound 207]	1 to 10	1 to 10	1 to 10	1 to 10	1 to 10	1 to 10	1 to 10	1 to 10	1 to 10	C (C represents 1000-9999 nM)	1 to 10
Cc1nc2cc(O)c(-c3ccc4nc(N5CC[C@H](NC(C)(C)C)C5)ccc4n3)cc2o1 [Compound 209]	< 0.1	< 0.1	< 0.1	< 0.1	< 0.1	< 0.1	1 to 10	< 0.1	< 0.1	C (C represents 1000-9999 nM)	< 0.1
Cc1nc2cc(O)c(-c3ccc4nc(N5CC[C@H](NC6CC6)C5)ccc4n3)cc2o1 [Compound 211]	< 0.1	< 0.1	< 0.1	< 0.1	< 0.1	< 0.1	< 0.1	< 0.1	< 0.1	B (B represents 100-1000 nM)	< 0.1
Cc1nc2c(C)c(O)c(-c3ccc4nc(N5CC[C@@H](NC(C)(C)C)C5)ccc4n3)cc2o1 [Compound 215]	< 0.1	< 0.1	< 0.1	< 0.1	< 0.1	< 0.1	< 0.1	< 0.1	< 0.1	A (A represents <100 nM)	< 0.1
Cn1cc2cc(-c3cc4ccc(N5CCC(NC(C)(C)C)C5)nc4cn3)c(O)cc2n1 (stereo not shown) [Compound 218]	0.1 to 1	> 10	> 10	> 10	> 10	> 10	1 to 10	> 10	> 10	C (C represents 1000-9999 nM)	1 to 10
Cn1cc2cc(-c3ccc4nc(N5CC[C@@H](NC6(C)CC6)C5)ccc4n3)c(O)cc2n1 [Compound 220]	< 0.1	< 0.1	< 0.1	< 0.1	< 0.1	< 0.1	< 0.1	< 0.1	< 0.1	A (A represents <100 nM)	< 0.1
Cn1cc2cc(-c3ccc4nc(N5CC[C@H](NC6(C)CC6)C5)ccc4n3)c(O)cc2n1 [Compound 221]	< 0.1	< 0.1	< 0.1	< 0.1	< 0.1	< 0.1	< 0.1	< 0.1	< 0.1	B (B represents 100-1000 nM)	< 0.1
